Laboratory results as given in article PMC7136958, “Targeting the pregnane X receptor using microbial metabolite mimicry” (EMBO Molecular Medicine, 2020).

What was measured:
AhR = target: T1, AhR (Homo sapiens, UniProt P35869); assay: AhR reporter assay, HepG2 cells stably expressing pCYP1A1 luciferase (AZ-AHR); assay type: cell-based
T1 construct: endogenous in cells; host or cells: AZ-AHR (HepG2)
T1 sequence (P35869 11-848): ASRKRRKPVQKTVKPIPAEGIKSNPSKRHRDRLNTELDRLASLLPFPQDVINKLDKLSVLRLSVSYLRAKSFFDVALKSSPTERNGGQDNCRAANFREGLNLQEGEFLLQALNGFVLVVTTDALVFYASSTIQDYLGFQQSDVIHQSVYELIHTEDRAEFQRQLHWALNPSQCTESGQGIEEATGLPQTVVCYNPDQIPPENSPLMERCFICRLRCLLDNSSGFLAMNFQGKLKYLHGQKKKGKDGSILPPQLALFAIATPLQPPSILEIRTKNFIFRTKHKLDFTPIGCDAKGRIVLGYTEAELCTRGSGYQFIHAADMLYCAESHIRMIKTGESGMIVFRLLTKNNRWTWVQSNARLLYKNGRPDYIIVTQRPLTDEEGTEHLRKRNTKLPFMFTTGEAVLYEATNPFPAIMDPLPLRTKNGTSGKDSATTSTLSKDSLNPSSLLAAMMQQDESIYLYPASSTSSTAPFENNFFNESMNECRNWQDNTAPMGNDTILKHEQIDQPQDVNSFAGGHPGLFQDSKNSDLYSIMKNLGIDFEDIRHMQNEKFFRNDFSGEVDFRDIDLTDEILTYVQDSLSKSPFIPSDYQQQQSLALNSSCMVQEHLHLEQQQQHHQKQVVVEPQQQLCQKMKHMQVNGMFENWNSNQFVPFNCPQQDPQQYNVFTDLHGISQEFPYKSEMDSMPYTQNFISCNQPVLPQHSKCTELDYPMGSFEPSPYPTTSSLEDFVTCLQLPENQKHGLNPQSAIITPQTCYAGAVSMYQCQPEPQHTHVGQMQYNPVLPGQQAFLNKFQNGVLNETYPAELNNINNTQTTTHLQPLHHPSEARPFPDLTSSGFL
Description: Incubations were performed in four technical replicates.

PXR = target: T2, PXR (Homo sapiens, UniProt O75469); assay: PXR reporter (p3A4-luc luciferase) assay in LS180 cells transiently transfected with wild-type PXR; settings: for FOLD INDUCTION of PXR reporter luciferase activity: 24 h, over UT
T2 sequence (O75469 1-434): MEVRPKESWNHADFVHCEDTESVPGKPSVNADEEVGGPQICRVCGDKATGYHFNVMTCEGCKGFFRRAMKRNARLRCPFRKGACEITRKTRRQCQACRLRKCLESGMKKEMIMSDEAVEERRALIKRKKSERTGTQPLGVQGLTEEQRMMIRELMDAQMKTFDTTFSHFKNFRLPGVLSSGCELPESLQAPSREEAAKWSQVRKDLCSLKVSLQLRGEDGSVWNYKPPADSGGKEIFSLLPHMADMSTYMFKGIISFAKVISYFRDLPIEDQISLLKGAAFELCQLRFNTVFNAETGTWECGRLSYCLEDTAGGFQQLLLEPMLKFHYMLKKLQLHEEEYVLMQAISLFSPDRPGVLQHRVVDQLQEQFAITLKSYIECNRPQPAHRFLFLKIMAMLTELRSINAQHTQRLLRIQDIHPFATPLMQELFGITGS
Description: Incubations were performed in four technical replicates. After the treatments, cells were lysed and luciferase activity was measured on Tecan Infinite M200 Pro plate reader (Schoeller Instruments, Prague, Czech Republic). The data are expressed as fold induction ± SD of luciferase activity over the control cells (agonistic mode—in the absence of a model ligand) or as a percentage of maximal activation ± SD (antagonistic mode—in the presence of a model ligand). […] For all the transfection experiments, specifically multiplexed transfections, the control wells were mock‐transfected ([…]). However, to exclude non‐specific binding of PXR (or other factors) upstream of the luciferase gene within non‐PXR‐binding elements, we performed pilot experiments in different cell passages (P11, P14, and P17) of LS174T cells using a mock luciferase plasmid (luciferase not containing an upstream PXR‐binding element of the CYP3A4 promoter).

[1] = AZ-AHR cells, 1 nM, fold vs DMSO
[2] = AZ-AHR cells, 10 nM, fold vs DMSO
[3] = AZ-AHR cells, 100 nM, fold vs DMSO
[4] = AZ-AHR cells, 1µM, fold vs DMSO
[5] = AZ-AHR cells, 10 µM, fold vs DMSO
[6] = LS180, read-out: FOLD INDUCTION of PXR reporter luciferase activity

| SMILES | FOLD INDUCTION (AZ-AHR luciferase) (AhR; [1]) | FOLD INDUCTION (AZ-AHR luciferase) (AhR; [2]) | FOLD INDUCTION (AZ-AHR luciferase) (AhR; [3]) | FOLD INDUCTION (AZ-AHR luciferase) (AhR; [4]) | FOLD INDUCTION (AZ-AHR luciferase) (AhR; [5]) | aver (mean luciferase signal of H1-H4) (PXR; 1 nM) | FOLD INDUCTION of PXR reporter luciferase activity (PXR; 1 nM) | aver (mean luciferase signal of H1-H4) (PXR; 10 nM) | FOLD INDUCTION of PXR reporter luciferase activity (PXR; 10 nM) | aver (mean luciferase signal of H1-H4) (PXR; 100 nM) | FOLD INDUCTION of PXR reporter luciferase activity (PXR; 100 nM) | aver (mean luciferase signal of H1-H4) (PXR; 1 uM) | FOLD INDUCTION of PXR reporter luciferase activity (PXR; 1 uM) | aver (mean luciferase signal of H1-H4) (PXR; 10 uM) | FOLD INDUCTION of PXR reporter luciferase activity (PXR; 10 uM) | aver (mean luciferase signal of H1-H4) (PXR; 25 uM) | FOLD INDUCTION of PXR reporter luciferase activity (PXR; 25 uM) | AhR activation (in words) (AhR) | also measured |
| --- | --- | --- | --- | --- | --- | --- | --- | --- | --- | --- | --- | --- | --- | --- | --- | --- | --- | --- | --- |
| OC(c1ccncc1)(c1cc2ccccc2[nH]1)c1cc2ccccc2[nH]1 [FKK2] | 0.9 fold | 0.9 fold | 2.1 fold | 15.0 fold | 467.5 fold | 2792.0 | 1.3 fold | 2989.5 | 1.4 fold | 3008.8 | 1.4 fold | 7365.5 | 3.4 fold | 41425.5 | 19.4 fold | 32321.0 | 15.1 fold | – | AhR activation (AhR; 10 μM): > 100 fold |
| O=S(=O)(c1ccccc1)n1c(C(O)Cc2cc3ccccc3[nH]2)cc2ccccc21 (racemic) [FKK8] | 0.6 fold | 0.7 fold | 1.1 fold | 2.3 fold | 40.8 fold | 3847.5 | 1.0 fold | 4121.3 | 1.1 fold | 8608.8 | 2.3 fold | 58017.5 | 15.3 fold | 99864.5 | 26.3 fold | 75044.8 | 19.7 fold | variable degrees of dose‐dependent AhR activation profiles | – |
| CC#CC(O)(c1ccncc1)c1cc2ccccc2n1S(=O)(=O)c1ccccc1 (racemic) [FKK3] | 0.8 fold | 0.7 fold | 0.9 fold | 1.1 fold | 5.3 fold | 5303.8 | 2.5 fold | 3556.8 | 1.7 fold | 7075.5 | 3.3 fold | 50228.8 | 23.5 fold | 65270.5 | 30.5 fold | 57813.0 | 27.0 fold | variable degrees of dose‐dependent AhR activation profiles | – |
| Cc1[nH]c2ccccc2c1C(c1c(C)[nH]c2ccccc12)c1c(C)[nH]c2ccccc12 [FKK999, reference compound] | – | – | – | – | – | 2509.3 | – | 3525.3 | – | 5905.5 | – | 26021.5 | – | 42646.5 | – | 44375.0 | – | variable degrees of dose‐dependent AhR activation profiles | fold induction at 24 h, 0.001 µM (AhR; human, AZ-AHR cells, 1 nM, fold vs DMSO): 1; fold induction at 24 h, 0.01 µM (AhR; human, AZ-AHR cells, 10 nM, fold vs DMSO): 1; fold induction at 24 h, 0.1 µM (AhR; human, AZ-AHR cells, 100 nM, fold vs DMSO): 3.5; fold induction at 24 h, 1 µM (AhR; human, AZ-AHR cells, 1µM, fold vs DMSO): 10.2; fold induction at 24 h, 10 µM (AhR; human, AZ-AHR cells, 10 µM, fold vs DMSO): 28.2; aver (mean luciferase signal of H1-H4) (PXR; 50 uM): 44986.8; fold induction at 0.001 µM (PXR; [6]): 1.39; fold induction at 0.01 µM (PXR; [6]): 1.95; fold induction at 0.1 µM (PXR; [6]): 3.27; fold induction at 1 µM (PXR; [6]): 14.4; fold induction at 10 µM (PXR; [6]): 23.6; fold induction at 25 µM (PXR; [6]): 24.5; fold induction at 50 µM (PXR; [6]): 24.9; PXR activation (in words) (PXR; cell-based transactivation): activated PXR |
| OC(Cc1cc2ccccc2[nH]1)(c1ccncc1)c1cc2ccccc2[nH]1 (stereo not drawn) [FKK10] | 0.5 fold | 0.318 fold | 0.8 fold | 1.3 fold | 21.9 fold | 4648.0 | 1.3 fold | 3990.3 | 1.1 fold | 4278.0 | 1.2 fold | 3689.5 | 1.1 fold | 16756.3 | 4.8 fold | 52110.3 | 15.0 fold | variable degrees of dose‐dependent AhR activation profiles | – |
| O=S(=O)(c1ccccc1)n1c(C(O)(Cc2cc3ccccc3[nH]2)c2ccncc2)cc2ccccc21 (racemic) [FKK7] | 0.746 fold | 0.738 fold | 0.7 fold | 3.6 fold | 75.5 fold | 4342.5 | 1.1 fold | 4393.8 | 1.2 fold | 6280.8 | 1.7 fold | 60156.8 | 15.8 fold | 84023.3 | 22.1 fold | 80527.0 | 21.2 fold | variable degrees of dose‐dependent AhR activation profiles | – |
